# Laboratory results: patent publication US12569542B2, “Treatment of cancer with immune stimulators” (SciClone Pharmaceuticals International (SG) PTE. LTD., priority 2014, dated 2026)
# Like-named read-outs stand apart in the source and are kept apart here. Where no end group is shown, it is not given here.
# Assays:
# [1] = system: B16F10 murine melanoma; test: Subcutaneous B16F10 murine melanoma model, cisplatin positive control (separate historical control study); format: in vivo, mice
# Text: (§1) B16F10 murine melanoma model is derived from MB16 line by successive selection of metastatic clones. B16F1 to B16F10 (ATCC Number CRL-6475™) were generated, with F10 being passaged in mice for 10 times, and thus highly metastatic. This model is widely used in studying metastasis mechanisms, evaluating cancer therapeutics. It is also one of the most common syngeneic models for cancer immunotherapy. Both subcutaneous and experimental metastasis models are very useful.
# (§2) Tumor volumes and body weights were monitored throughout the study. Cisplatin was administered to the positive control group in a separate historical control study. The negative control group was administered with vehicle only in all studies.
# B16F10 mice treated with cisplatin typically show reduced tumor volume (FIG. 1A and Table 3).
# [2] = system: B16-F10 cells (lung metastases); conditions: for Mean Met Count / Percent Inhibition: Day 16; for Mean Met Count: SR1 220.51 μg/animal sc bid to end, Anti-PD-1-SCE 100 μg/animal ip biwk ×3, combination at the same doses, Cyclophosphamide 300 mg/kg ip Qd ×1; for Percent Inhibition: [1 − (T/C)] × 100, compared to Group 1 (vehicle); for Deaths NTR (non-treatment-related death) / Deaths TR (treatment-related death): n = 10 per group
# Protocol: (§3) The animals were fed ad libitum water (reverse osmosis, 1 ppm Cl) and NIH 31 Modified and Irradiated Lab Diet® consisting of 18.0% crude protein, 5.0% crude fat, and 5.0% crude fiber. The mice were housed on irradiated Enrich-o'cobs™ bedding in static microisolators on a 12-hour light cycle at 20-22° C. (68-72° F.) and 40-60% humidity. DRS-NC specifically complies with the recommendations of the Guide for Care and Use of Laboratory Animals with respect to restraint, husbandry, surgical procedures, feed and fluid regulation, and veterinary care. The animal care and use program at DRS-NC is accredited by the Association for Assessment and Accreditation of Laboratory Animal Care International, which assures compliance with accepted standards for the care and use of laboratory animals.
# (§4) A sixth group of animals was included as the “look-see” group (n=9). B16-F10 cells were harvested during log-phase growth and resuspended at a concentration of 7.5×10^5 cells/mL in PBS. Each mouse received an intravenous (i.v.) tail vein injection of 1.5×10^5 B16-F10 cells (0.2 mL cell suspension) on D1 of the study.
# (§5) Test Articles: Anti-PD1 alpha peptide (coded as anti-PD-1-SCE, Lot. No. 5177/0214) and thymosin alpha-1 peptide (Thymalfasin, code-named SR1, Lot. No. 1402-224). DRS-NC assigned code names for the purpose of confidentiality during in-house testing. […] Dosing was not adjusted per body weight. Anti-PD-1-SCE antibody was diluted in PBS to yield a 10.0 mg/mL dosing solution, which provided a 100 mg/kg dosage in a dosing volume of 10 mL/kg. Dosing was not adjusted per body weight. […] Dosing was adjusted per body weight.
# (§6) Endpoint: The endpoint of the B16MET-e117 study was defined as 100 metastases per lung set. Two to three animals from the “look-see” group were euthanized in three days intervals beginning on Day 9 and lung metastatic foci were counted. […] The study was terminated on D16 and all animals were euthanized and their metastases counted. Percent inhibition was defined as the difference between the number of metastatic foci of the designated control group and the number of metastatic foci of the drug-treated group, expressed as a percentage of the number of metastatic foci of the designated control group: % Inhibition=[1−(#Focidrug-treated/#Focicontrol)]×100
# (§7) Toxicity: Animals were weighed daily for the first five days of the study and twice weekly thereafter. […] Acceptable toxicity was defined as a group mean body-weight loss of less than 20% during the study and not more than one treatment-related (TR) death among ten treated animals. Any dosing regimen resulting in greater toxicity is considered above the maximum tolerated dose (MTD). A death is classified as TR if attributable to treatment side effects as evidenced by clinical signs and/or necropsy, or if due to unknown causes during the dosing period or within fourteen days of the last dose. A death is classified as non-treatment-related (NTR) if there is no evidence that death was related to treatment side effects.
# Statistical and Graphical Analyses: Prism (GraphPad) for Windows 6.02 was used for all graphical presentations and statistical analyses. The Mann-Whitney U-test, for analysis of medians, was used to determine the statistical significance between D16 B16F10 metastatic foci in control and treated groups. Two-tailed statistical analyses were conducted at P=0.05. A “box and whiskers” diagram was constructed to show the distribution of enumerated metastatic foci for each treatment group on D16.
# Prism reports results as non-significant (ns) at P>0.05, significant (symbolized by “*”) at 0.01<P≤0.05, very significant (“**”) at 0.001<P≤0.01, and extremely significant (“***”) at P≤0.001.
# [3] = system: B16-F10 cells (lung metastases); conditions: for Mean Met Count: Day 15; for Inhibition (%): compared to Group 1; for Deaths NTR / Deaths TR: n = 10
# Protocol: as §3, §4, §5, §6, §7
# B16F10 Mouse Lung Metastatic Melanoma Model was developed. About 1.5×10^5 B16-F10 cells (0.2 mL cell suspension) were grown in vitro and administered intravenously (Day 0) to female B6D2F1/Crl mice. On Day 1 dosing with test agents initiated.
# A “look see”-untreated-group was set to evaluate, over a period of 15 days, the number of metastasis. […] Three days later other three mice were examined. When the met count reached approximately 50-100 counts, all groups in the study were sacrificed and final met counts were established. The “look see” group count was not included in the final efficacy analysis. 50-100 met count defined as the target number because most of the individual metastasis could be count easily and mets were less likely to merge with each other difficulty the counting.
# [4] = system: B16F10 Murine Melanoma (lung metastasis foci); test: Systemic B16F10 murine melanoma model, lung metastasis foci (independent laboratory); format: in vivo, C57BL/6 mice
# [5] = system: B16F10 murine melanoma; test: Subcutaneous B16F10 murine melanoma model, thymosin (Study No. 1 and Study No. 2); format: in vivo, C57BL/6 mice; conditions: for mean tumor size / T/C value: day 14 post tumor inoculation; for tumor growth delay: at tumor size of 1,140 mm^3
# Text: as §1
# To study the effect of thymosin in treating melanoma, thymosin alpha peptide (ZADAXIN) was administered to mice inoculated with B16F10 in two separate studies:
# as §2
# [6] = system: IL-1β; test: Biomarker evaluation in subcutaneous B16F10 murine melanoma model (FIG. 4A); format: in vivo, C57BL/6 mice; conditions: subcutaneously twice a day for 6 days at 0.02, 0.06, 0.2, 0.3, 2, or 6 mg/kg, D4 and D7 after start of dosing
# Protocol: (§8) FIG. 4A depicts evaluation of IL-1β in subcutaneous B16F10 murine melanoma model in C57BL/6 mice treated with thymosin. ZADAXIN™ (thymalfasin) was administered to mice subcutaneously twice a day for 6 days at 0.02, 0.06, 0.2, 0.3, 2, or 6 mg/kg 10 μL/g. IL-1β levels were lower in ZADAXIN™ (thymalfasin) treated groups compared to vehicle treated groups at D4 and D7 after start of dosing.
# (§9) In the studies described above, a group of potential biomarkers were tested in, including IL-7, 11-18, TREM-1, IFN-α, procalcitonin, GM-CSF, IL-1α, IFN-γ, TNF a, IL-2, IL-4, IL-5, IL-6, IL-10, IL-12p70, and IL-1β.
# [7] = system: IL-4; test: Biomarker evaluation in subcutaneous B16F10 murine melanoma model (FIG. 4B); format: in vivo, C57BL/6 mice; conditions: subcutaneously twice a day for 6 days at 0.02, 0.06, 0.2, 0.3, 2, or 6 mg/kg, D4 and D7 after start of dosing
# Protocol: as §8, with “4B” for “4A”, “IL-4” for “IL-1β”, “higher” for “lower”
# as §9
# [8] = system: IL-6; test: Biomarker evaluation in subcutaneous B16F10 murine melanoma model (FIG. 4C); format: in vivo, C57BL/6 mice; conditions: subcutaneously twice a day for 6 days at 0.02, 0.06, 0.2, 0.3, 2, or 6 mg/kg, D4 and D7 after start of dosing
# Protocol: as §8, with “4C” for “4A”, “IL-6” for “IL-1β”
# as §9
# [9] = system: IL-1β; test: Biomarker evaluation in subcutaneous B16F10 murine melanoma model (FIG. 4D); format: in vivo, C57BL/6 mice; conditions: subcutaneously twice a day for 6 days at 0.02, 0.06, 0.2, 0.3, 2, or 6 mg/kg, D4 and D7 after start of dosing
# Protocol: as §8, with “4D” for “4A”
# as §9
# [10] = Group 13: Cyclophosphamide 300 mg/kg ip qd ×1
# [11] = Group 13: Cyclophosphamide 300 mg/kg
# [12] = Group 9: Cyclophosphomide 300 mg/kg
# [13] = Group 2: SR1 0.4862 μg/animal sc bid to end
# [14] = Group 3: SR1 4.86 μg/animal sc bid to end
# [15] = Group 4: SR1 48.62 μg/animal sc bid to end
compound,measurement,setting,value
N.N.[Cl][Pt][Cl] [Cisplatin],Tumor Size (mm^3) on Day 28,"[1]; B16F10 mice treated with cisplatin, Day 28, historical control study",862 ± 233 mm^3
same,body weight,"[1]; B16F10 mice treated with cisplatin, FIG. 1B, result of the toxicity of cisplatin",significantly reduced body weight
same,T/C Value (%) on Day 28,"[1]; cisplatin vs vehicle, Day 28",30%
same,T-C (days) at 800 mm^3,"[1]; cisplatin vs vehicle, at tumor size 800 mm^3",>4 days
O=P1(N(CCCl)CCCl)NCCCO1 (centres unmarked) [Cyclophosphamide],Mean Met Count,[2],0.5
same,Percent Inhibition,[2]; doses as E23,99.5%
same,Mean BW Nadir,"[2]; lowest group mean body weight, as % change from Day 1, Cyclophosphamide nadir on Day 3, doses as E23",−4.3%
same,Deaths NTR (non-treatment-related death),[2]; doses as E23,0
same,Deaths TR (treatment-related death),[2]; doses as E23,0
same,Mean Met Count,[3]; [10],2
same,Inhibition (%),[3]; [10],99%
same,Mean BW Nadir,"[3]; Group 13: Cyclophosphamide 300 mg/kg, % change from Day 1, nadir Day 2",−8.0%
same,Deaths NTR,[3]; [11],0
same,Deaths TR,[3]; [11],0
same,Inhibition (%),[4]; [12],100%
same,Number of metastasis foci on day 13 (Mean ± SEM),[4]; [12],0 ± 0
"thymosin alpha 1 (Ac-SDAAVDTSSEITTKDLKEKKEVVEEAEN) [TA1, synthetic version sold as ZADAXIN (thymalfasin); code-named SR1]",tumor growth compared with vehicle treated group,"[5]; all doses tested, FIG. 2 and FIG. 3",reduced tumor growth
same,tumor growth compared with vehicle treated group (FIG. 3),"[5]; several different doses, all tested doses",statistically significant reduced tumor growth
same,mean tumor size,"[5]; study I, TA1 0.2 mg/kg bid i.p. for 7 days","1,148 mm^3"
same,tumor growth delay,"[5]; study I, TA1 0.2 mg/kg",1.5 days
same,T/C value,"[5]; study I, TA1 0.2 mg/kg",57.56%
same,mean tumor size,"[5]; study I, TA1 2 mg/kg bid i.p. for 7 days","1,384 mm^3"
same,tumor growth delay,"[5]; study I, TA1 2 mg/kg",0.5 days
same,T/C value,"[5]; study I, TA1 2 mg/kg",69.36%
same,tumor growth,"[5]; study I, TA1 6 mg/kg, decrease didn't reach a significant difference",can delay tumor growth
same,weight changes by group,[5]; thymosin treated B16F10 mice,no significant weight changes
same,IL-1β levels compared to vehicle treated groups,[6],lower
same,IL-4 levels compared to vehicle treated groups,[7],higher
same,IL-6 levels compared to vehicle treated groups,[8],lower
same,IL-1β levels compared to vehicle treated groups (FIG. 4D),[9],lower
same,Mean Met Count,[2],72.5
same,metastases to lung in melanoma model,[2]; Study I,decreases metastases to lung
same,Percent Inhibition,[2]; doses as E23,31.5%
same,Deaths NTR (non-treatment-related death),[2]; doses as E23,0
same,Deaths TR (treatment-related death),[2]; doses as E23,0
same,Mean Met Count,[3]; [13],186
same,Inhibition (%),[3]; [13],−17%
same,Deaths NTR,[3]; Group 2: SR1 0.4862 μg/animal,0
same,Deaths TR,[3]; Group 2: SR1 0.4862 μg/animal,0
same,Mean Met Count,[3]; [14],182
same,Inhibition (%),[3]; [14],−14%
same,Deaths NTR,[3]; Group 3: SR1 4.86 μg/animal,0
same,Deaths TR,[3]; Group 3: SR1 4.86 μg/animal,0
same,Mean Met Count,[3]; [15],167
same,Inhibition (%),[3]; [15],−5%
same,Deaths NTR,[3]; Group 4: SR1 48.62 μg/animal,0
same,Deaths TR,[3]; Group 4: SR1 48.62 μg/animal,0
same,Inhibition (%),[4]; Group 3: TA1 0.486 μg/mouse,20.35%
same,Number of metastasis foci on day 13 (Mean ± SEM),[4]; Group 3: TA1 0.486 μg/mouse,92 ± 9
same,Inhibition (%),[4]; Group 4: TA1 4.86 μg/mouse,41.83%
same,Number of metastasis foci on day 13 (Mean ± SEM),[4]; Group 4: TA1 4.86 μg/mouse,67 ± 12
same,Inhibition (%),[4]; Group 5: TA1 48.6 μg/mouse,42.26%
same,Number of metastasis foci on day 13 (Mean ± SEM),[4]; Group 5: TA1 48.6 μg/mouse,66 ± 10
